As usually defined, the EC50 is the concentration giving half of the maximal effect. Read a low EC50 as higher potency in that assay.

The results in this text go back to patent US12384775B2, “Pyrimid-2-yl-pyrazole compounds as IRAK inhibitors” (Rigel Pharmaceuticals, Inc., priority 2022, dated 2025).

For assay [1], the system named is TLR7-induced TNF-α production in human primary dendritic cells (DC). In words: Gardiquimod-induced TNF-α in human monocyte-derived dendritic cells (DC). The class given is cell-based. As to conditions: Dendritic cell, gardiquimod 4 μg/ml, read-out: Cell Assays IC50, TNFα (DC, Gard). On the procedure: Human peripheral blood mononuclear cells (PBMC) (400 million) were allowed to adhere in a T-175 flask containing 15 ml RPMI media (10% FBS) for 2 hours at 37° C., 5% CO2 to capture the monocytes.
After 2 hours, the media including floating cells was carefully removed and 12 ml of fresh RPMI media (10% FBS) containing GM-CSF (100 ng/ml) and IL-4 (20 ng/ml) were added to the adherent monocytes. The monocytes were allowed to differentiate for 7 days at 37° C., 5% CO2 for 7 days, supplementing with fresh GM-CSF and IL-4 after 3 days.
The differentiated dendritic cells (DC) were harvested by centrifugation (1200 rpm/5 min). The DCs were primed at 37° C., 5% CO2 for 24 hours with 50 ng/ml IFN-7 (1000 U/ml) at 50K/well in 100 μL/well of fresh RPMI media (10% FBS) in a white clear bottom 96 well plate.
Compound was serially diluted in DMSO from 2.5 mM in 4-fold dilutions, and then diluted 1:125 in RPMI 1640 complete media with 10% FBS. The primed DCs were pre-incubated with test compound for 1 hour at 37° C., 5% CO2 by adding 100 μl of RPMI media containing 2× concentrated test compound per well (0.5% final DMSO concentration).
The DCs were stimulated with gardiquimod (10 μL per well of 20× concentrated gardiquimod solution in RPMI media to give a final concentration of 4 μg/ml) at 37° C., 5% CO2 for an additional 18 hours. […] TNF-α was quantitated by ELISA, following the kit protocol.

A further assay concerns the target IRAK1 (Homo sapiens, UniProt P51617). In words: IRAK1 Adapta assay. The class given is biochemical. The note with it: for IC50: n = 1, read-out: IRAK4 IC50 Adapta (n = 1). Here is the method:
• Bar-coded Corning, low volume, white 384-well plate (Corning Cat. #4512) • Test Compounds: The Test Compounds are screened in 1% DMSO (final) in the well. For 10 point titrations, 3-fold serial dilutions 10 μM. • Substrate/Kinase Mixture: The 2×IRAK1/Histone H3 (1-20) peptide mixture is prepared in 50 mM HEPES pH 7.5, 0.01% BRIJ-35, 10 mM MgCl2, 1 mM EGTA. • ATP Solution: All ATP Solutions are diluted to a 4× working concentration in water. • ATP Km apparent is previously determined using a radiometric assay except when no substrate is available in which case an Adapta assay is conducted. • Detection Mix: The Detection Mix is prepared in TR-FRET Dilution Buffer. The Detection mix consists of EDTA (30 mM), Eu-anti-ADP antibody (6 nM) and ADP tracer. The detection mix contains the EC60 concentration of tracer for 5-150 μM ATP. IRAK1 Method • 1. 100 nL—100× Test Compound in 100% DMSO • 2. 2.4 μL—30 mM HEPES • 3. 2.5 μL—4×ATP Solution • 4. 5 μL—2× Substrate/Kinase Mixture
The final 10 μL Kinase Reaction consists of 3.17-42 ng IRAK1 and 100 μM Histone H3 (1-20) peptide in 32.5 mM HEPES pH 7.5, 0.005% BRIJ-35, 5 mM MgCl2, 0.5 mM EGTA. • 5. 30-second plate shake • 6. 1-minute centrifuge at 1000× g • 7. 60-minute Kinase Reaction incubation at room temperature • 8. 5 μL—Detection Mix • 9. 30-second plate shake • 10. 1-minute centrifuge at 1000× g • 11. 60-minute Detection Mix equilibration at room temperature • 12. Read on fluorescence plate reader and analyze the data

Assay [2] concerns TLR- and IL-1R-dependent cytokine production. In words: Cell assays, average of IL-23 (THP-1), TNFα (PBMC), TNFα (DC). It counts as cell-based. The note with it: Homo sapiens, average of the three cell assays. An excerpt:
To evaluate the effect of compound I-1 on TLR and IL-1R-dependent cytokine release, multiple cell types were isolated and stimulated in the presence of compound I-1 or Comparison-1.

Assay [3] concerns Gardiquimod-Induced IL-6 in Human Blood. In words: Gardiquimod-induced IL-6 in human whole blood. The note with it: Gardiquimod 4 μg/ml overnight, read-out: Human Whole Blood Assays (IC5050), IL-6 Gard. It counts as cell-based. On the procedure:
To assess the effect of whole blood on the potency of compound I-1 and Comparison-1, the compounds were evaluated for their inhibitory potential on TLR dependent cytokine release in human blood. Freshly drawn peripheral blood from healthy volunteers was incubated with test compound and stimulated overnight with LPS or Gardiquimod. The serum was isolated after centrifugation and TNF-α and IL-6 were measured by ELISA.
Whole blood of healthy volunteers was collected in Vacutainer containing Sodium Heparin and 40 μL of blood was plated to each well. Compound was serially diluted in DMSO from 2 mM in 3-fold dilutions, and then diluted 1:100 in media with 10% FBS. 50 μL of 2× compound per well in duplicate was added to each well and incubated for one hour. 10 μL Gardiquimod was added to each well at a final concentration of 4 μg/ml and cells were incubated overnight.
100 μL of PBS was added to each well and centrifuged for 10 minutes at 1000 RPM 25 μL of supernatant were taken, and IL-6 was measured by Luminex Flexmap 3d.

Chain of IRAK1 (P51617 whole entry): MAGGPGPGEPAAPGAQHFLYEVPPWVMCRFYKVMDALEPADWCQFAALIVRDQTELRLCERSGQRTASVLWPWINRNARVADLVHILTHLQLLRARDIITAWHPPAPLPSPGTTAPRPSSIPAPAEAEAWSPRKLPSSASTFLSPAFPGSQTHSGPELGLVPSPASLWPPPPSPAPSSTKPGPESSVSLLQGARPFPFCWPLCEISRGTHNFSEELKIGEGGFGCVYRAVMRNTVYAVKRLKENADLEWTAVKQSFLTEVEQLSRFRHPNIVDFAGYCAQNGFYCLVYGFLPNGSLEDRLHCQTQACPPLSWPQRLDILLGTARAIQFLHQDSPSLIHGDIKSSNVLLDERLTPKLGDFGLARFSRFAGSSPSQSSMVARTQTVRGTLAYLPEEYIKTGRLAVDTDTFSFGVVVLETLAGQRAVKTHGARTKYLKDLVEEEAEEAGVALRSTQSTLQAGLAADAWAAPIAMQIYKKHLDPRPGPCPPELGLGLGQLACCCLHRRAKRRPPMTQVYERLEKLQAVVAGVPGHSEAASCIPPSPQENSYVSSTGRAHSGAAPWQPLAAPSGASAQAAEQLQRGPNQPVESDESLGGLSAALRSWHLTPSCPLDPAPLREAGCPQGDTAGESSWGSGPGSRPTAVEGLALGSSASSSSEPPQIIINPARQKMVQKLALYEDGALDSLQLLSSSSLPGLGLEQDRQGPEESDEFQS

As for `CCO[C@H]1CC[C@H](n2cc(NC(=O)c3csc(-c4cn[nH]c4)n3)c(-c3ncccn3)n2)CC1` [Compound I-1, N-(1-((1r,4r)-4-ethoxycyclohexyl)-3-(pyrimidin-2-yl)-1H-pyrazol-4-yl)-2-(1H-pyrazol-4-yl)thiazole-4-carboxamide], the IC50 in assay [1] came out at 5 nM; at IRAK1 it was 4 nM; in assay [2], 5 nM; in assay [3], 124 nM. In addition, at IRAK1, the EC50 came out at 4 nM.

With `CCO[C@H]1CC[C@H](n2cc(NC(=O)c3csc(-c4cn[nH]c4)n3)c(-c3nc(F)ccc3F)n2)CC1` [Comparison-1, reference compound], the IC50 in assay [1] was found to be 19 nM; at IRAK1 it was 14 nM; in assay [2], 32 nM; in assay [3] it was 1400 nM.
